Measured values published in patent US20240376100A1 (Redona Therapeutics, Inc., priority 2021, published 2024).
Counter-ions that a name gives are not always drawn.

molecular target: PAPD5 enzyme (Homo sapiens, UniProt Q8NDF8); experiment: PAPD5 assay (AMP incorporation onto 3'-terminus of RNA substrate, fluorescence quench); format: biochemical; settings: PAPD5 protein 0.3 nM, ATP 50 μM, 30 minutes preincubation, room temperature; read-out: Potency PAPD5 IC50
Experimental: The purpose of the PAPD5 assay is to determine compound potency against PAPD5 enzyme through the measurement of IC50. Compound inhibition is measured as a function of AMP incorporation onto the 3′-terminus of an RNA substrate in the presence of active PAPD5, ATP, and inhibitor. The PAPD5 assay was done in a black, non-binding, 384 well plate (Corning #3575). All steps were performed at room temperature. For a typical assay, a 40 ul aliquot of assay buffer (50 mM HEPES pH 7.3, 20 mM KCl, 10 mM MgCl2, 10 mMM DTT, 0.01% Triton X-100, 40 U/ml RNAsin (Promega)) containing PAPD5 protein (final 10 concentration: 0.3 nM) and ATP (final concentration 50 μM) was added to each well. Next, 1 ul of compound in 100% DMSO is transferred from a compound dilution plate in which the compound is serially diluted. The plate was placed on a plate shaker for 30 seconds to produce mixing, then incubated for 30 minutes. Next, 10 ul of a 5× mix of RNA substrate (5′-fluorescein-AUAGAG-3′ (IDT)) and a DNA oligonucleotide that is complementary to the AMP modified RNA product (5′-TCTCTATT-3′-TAMRA, wherein the first two nucleotides are locked nucleic acids (IDT)) was added (final concentrations: 5 nM and 20 nM, respectively). The plate was placed on a plate shaker for 30 seconds to produce mixing then immediately placed in a Biotek Cytation 5 plate reader, and the time-dependent decrease in fluorescein fluorescence resulting from annealing of the TAMRA labeled quenching probe was recorded, using the kinetics mode of the reader (typical run time is 90 minutes). Reaction rates were obtained using linear fits to the early portion of progress curves. IC50 values were calculated using a four-parameter fit with 100% enzyme activity determined from the DMSO control and 0% activity from control samples lacking UTP.
“+” represents an IC50 value that is greater than 50 PM; “++” represents an IC50 value that is greater than 10 μM and equal to or less than 50 μM; “+++” represents an IC50 value that is greater than 1 μM and equal to or less than 10 μM; and “++++” represents an IC50 value that is equal to or less than 1 μM.

Chain of PAPD5 enzyme (Q8NDF8 whole entry): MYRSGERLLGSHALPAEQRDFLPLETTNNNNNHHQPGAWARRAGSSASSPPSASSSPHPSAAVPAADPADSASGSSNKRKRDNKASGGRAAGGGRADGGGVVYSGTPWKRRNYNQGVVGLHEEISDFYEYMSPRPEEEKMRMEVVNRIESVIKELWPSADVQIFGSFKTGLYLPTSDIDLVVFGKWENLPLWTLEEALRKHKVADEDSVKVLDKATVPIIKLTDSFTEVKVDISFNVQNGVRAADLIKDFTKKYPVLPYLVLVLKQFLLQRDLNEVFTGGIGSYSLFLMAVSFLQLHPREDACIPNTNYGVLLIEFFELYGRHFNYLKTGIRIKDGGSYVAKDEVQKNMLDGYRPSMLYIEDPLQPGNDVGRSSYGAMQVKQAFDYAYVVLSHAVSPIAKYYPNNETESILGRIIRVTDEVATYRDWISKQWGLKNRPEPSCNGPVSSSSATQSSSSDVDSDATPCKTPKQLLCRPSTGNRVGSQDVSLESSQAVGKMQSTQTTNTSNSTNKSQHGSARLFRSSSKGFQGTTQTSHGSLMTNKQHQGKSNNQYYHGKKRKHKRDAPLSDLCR

| Compound | IC50 [nM] |
| --- | --- |
| CC(C)Cn1cc(C(=O)O)c(=O)c2cc(Cl)c(N3Cc4cccnc4C3)nc21 [Example 34, 6-chloro-7-(5,7-dihydro-6H-pyrrolo[3,4-b]pyridin-6-yl)-1-isobutyl-4-oxo-1,4-dihydro-1,8-naphthyridine-3-carboxylic acid] | ≤ 1000 |
| N#Cc1cc2c(=O)c(C(=O)O)cn(-c3ccc(O)c(F)c3)c2cc1N1Cc2cccnc2C1 [Example 37, 6-cyano-7-(5,7-dihydro-6H-pyrrolo[3,4-b]pyridin-6-yl)-1-(3-fluoro-4-hydroxyphenyl)-4-oxo-1,4-dihydroquinoline-3-carboxylic acid] | ≤ 1000 |
| COc1ccc(-c2ccn(-c3cc4c(cc3F)c(=O)c(C(=O)O)cn4-c3ccc(O)cc3F)n2)cc1 [Example 39, 6-fluoro-1-(2-fluoro-4-hydroxyphenyl)-7-(3-(4-methoxyphenyl)-1H-pyrazol-1-yl)-4-oxo-1,4-dihydroquinoline-3-carboxylic acid] | ≤ 1000 |
| O=C(O)c1cn(Cc2ccccc2)c2nc(N3Cc4cccnc4C3)c(Cl)cc2c1=O [Example 40, 1-benzyl-6-chloro-7-(5,7-dihydro-6H-pyrrolo[3,4-b]pyridin-6-yl)-4-oxo-1,4-dihydro-1,8-naphthyridine-3-carboxylic acid] | ≤ 1000 |
| CC(c1ccccc1)n1cc(C(=O)O)c(=O)c2cc(Cl)c(N3Cc4cccnc4C3)nc21 (centres unmarked) [Example 43, 6-chloro-7-(5,7-dihydro-6H-pyrrolo[3,4-b]pyridin-6-yl)-4-oxo-1-(1-phenylethyl)-1,4-dihydro-1,8-naphthyridine-3-carboxylic acid] | ≤ 1000 |
| N#Cc1cc2c(=O)c(C(=O)O)cn(-c3cnccn3)c2nc1N1Cc2cccnc2C1 [Example 45, 6-cyano-7-(5,7-dihydro-6H-pyrrolo[3,4-b]pyridin-6-yl)-4-oxo-1-(pyrazin-2-yl)-1,4-dihydro-1,8-naphthyridine-3-carboxylic acid] | ≤ 1000 |
| Cc1nc(NC(=O)OC(C)(C)C)ccc1-n1cc(C(=O)O)c(=O)c2cc(Cl)c(N3Cc4cccnc4C3)cc21 [Example 46, 1-(6-((tert-butoxycarbonyl)amino)-2-methylpyridin-3-yl)-6-chloro-7-(5,7-dihydro-6H-pyrrolo[3,4-b]pyridin-6-yl)-4-oxo-1,4-dihydroquinoline-3-carboxylic acid] | ≤ 1000 |
| COCCNc1ccc(-n2cc(C(=O)O)c(=O)c3cc(C#N)c(N4Cc5cccnc5C4)cc32)cn1 [Example 50, 6-cyano-7-(5,7-dihydro-6H-pyrrolo[3,4-b]pyridin-6-yl)-1-(6-((2-methoxyethyl)amino)pyridin-3-yl)-4-oxo-1,4-dihydroquinoline-3-carboxylic acid] | ≤ 1000 |
| Nc1ccc(-n2cc(C(=O)O)c(=O)c3cc(Cl)c(N4Cc5cccnc5C4)nc32)cn1 [Example 51, 1-(6-aminopyridin-3-yl)-6-chloro-7-(5,7-dihydro-6H-pyrrolo[3,4-b]pyridin-6-yl)-4-oxo-1,4-dihydro-1,8-naphthyridine-3-carboxylic acid] | ≤ 1000 |
| Nc1ccc(-n2cc(C(=O)O)c(=O)c3cc(Cl)c(N4Cc5cccnc5C4)cc32)cn1 [Example 52, 1-(6-aminopyridin-3-yl)-6-chloro-7-(5,7-dihydro-6H-pyrrolo[3,4-b]pyridin-6-yl)-4-oxo-1,4-dihydroquinoline-3-carboxylic acid] | ≤ 1000 |
| COc1ccc(-n2cc(C(=O)O)c(=O)c3cc(C#N)c(N4Cc5cccnc5C4)cc32)cn1 [Example 55, 6-cyano-7-(5,7-dihydro-6H-pyrrolo[3,4-b]pyridin-6-yl)-1-(6-methoxypyridin-3-yl)-4-oxo-1,4-dihydroquinoline-3-carboxylic acid] | ≤ 1000 |
| CS(=O)(=O)Nc1ccc(-n2cc(C(=O)O)c(=O)c3cc(C#N)c(N4Cc5cccnc5C4)cc32)c(F)c1 [Example 57, 6-cyano-7-(5,7-dihydro-6H-pyrrolo[3,4-b]pyridin-6-yl)-1-(2-fluoro-4-(methylsulfonamido)phenyl)-4-oxo-1,4-dihydroquinoline-3-carboxylic acid] | ≤ 1000 |
| COCCOc1ccc(-n2cc(C(=O)O)c(=O)c3cc(C#N)c(N4Cc5cccnc5C4)cc32)cn1 [Example 58, 6-cyano-7-(5,7-dihydro-6H-pyrrolo[3,4-b]pyridin-6-yl)-1-(6-(2-methoxyethoxy)pyridin-3-yl)-4-oxo-1,4-dihydroquinoline-3-carboxylic acid] | ≤ 1000 |
| CN(C)CCOc1ccc(-n2cc(C(=O)O)c(=O)c3cc(C#N)c(N4Cc5cccnc5C4)cc32)cn1 [Example 59, 6-cyano-7-(5,7-dihydro-6H-pyrrolo[3,4-b]pyridin-6-yl)-1-(6-(2-(dimethylamino)ethoxy)pyridin-3-yl)-4-oxo-1,4-dihydroquinoline-3-carboxylic acid hydrochloride] | ≤ 1000 |

Further lines, results first:

| IC50 [nM] | Compound |
| --- | --- |
| ≤ 1000 | O=C(O)c1cn(CC2CCC2)c2cc(N3Cc4cccnc4C3)c(Cl)cc2c1=O [Example 33, 6-chloro-1-(cyclobutylmethyl)-7-(5,7-dihydro-6H-pyrrolo[3,4-b]pyridin-6-yl)-4-oxo-1,4-dihydroquinoline-3-carboxylic acid] |
| ≤ 1000 | CN(C)C1CN(c2ccc(-n3cc(C(=O)O)c(=O)c4cc(C#N)c(N5Cc6cccnc6C5)cc43)cn2)C1 [Example 36, 6-cyano-7-(5,7-dihydro-6H-pyrrolo[3,4-b]pyridin-6-yl)-1-(6-(3-(dimethylamino)azetidin-1-yl)pyridin-3-yl)-4-oxo-1,4-dihydroquinoline-3-carboxylic acid] |
| ≤ 1000 | N#Cc1cc2c(=O)c(C(=O)O)cn(-c3ccc(O)cc3F)c2cc1N1Cc2cccnc2C1 [Example 38, 6-cyano-7-(5,7-dihydro-6H-pyrrolo[3,4-b]pyridin-6-yl)-1-(2-fluoro-4-hydroxyphenyl)-4-oxo-1,4-dihydroquinoline-3-carboxylic acid] |
| ≤ 1000 | COc1ccccc1Cn1cc(C(=O)O)c(=O)c2cc(Cl)c(N3Cc4cccnc4C3)nc21 [Example 41, 6-chloro-7-(5,7-dihydro-6H-pyrrolo[3,4-b]pyridin-6-yl)-1-(2-methoxybenzyl)-4-oxo-1,4-dihydro-1,8-naphthyridine-3-carboxylic acid] |
| ≤ 1000 | COc1cccc(Cn2cc(C(=O)O)c(=O)c3cc(Cl)c(N4Cc5cccnc5C4)nc32)c1 [Example 42, 6-chloro-7-(5,7-dihydro-6H-pyrrolo[3,4-b]pyridin-6-yl)-1-(3-methoxybenzyl)-4-oxo-1,4-dihydro-1,8-naphthyridine-3-carboxylic acid] |
| ≤ 1000 | COc1ccc(Cn2cc(C(=O)O)c(=O)c3cc(Cl)c(N4Cc5cccnc5C4)nc32)cc1 [Example 44, 6-chloro-7-(5,7-dihydro-6H-pyrrolo[3,4-b]pyridin-6-yl)-1-(4-methoxybenzyl)-4-oxo-1,4-dihydro-1,8-naphthyridine-3-carboxylic acid] |
| ≤ 1000 | N#Cc1cc2c(=O)c(C(=O)O)cn(-c3cnccn3)c2cc1N1Cc2cccnc2C1 [Example 47, 6-cyano-7-(5,7-dihydro-6H-pyrrolo[3,4-b]pyridin-6-yl)-4-oxo-1-(pyrazin-2-yl)-1,4-dihydroquinoline-3-carboxylic acid] |
| ≤ 1000 | N#Cc1cc2c(=O)c(C(=O)O)cn(-c3ccc(N)nc3)c2cc1N1Cc2cccnc2C1 [Example 48, 1-(6-aminopyridin-3-yl)-6-cyano-7-(5,7-dihydro-6H-pyrrolo[3,4-b]pyridin-6-yl)-4-oxo-1,4-dihydroquinoline-3-carboxylic acid] |
| ≤ 1000 | N#Cc1cc2c(=O)c(C(=O)O)cn(-c3ccc(N4CCC4)nc3)c2cc1N1Cc2cccnc2C1 [Example 49, 1-(6-(azetidin-1-yl)pyridin-3-yl)-6-cyano-7-(5,7-dihydro-6H-pyrrolo-[3,4-b]pyridin-6-yl)-4-oxo-1,4-dihydroquinoline-3-carboxylic acid] |
| ≤ 1000 | N#Cc1cc2c(=O)c(C(=O)O)cn(-c3cccnc3)c2cc1N1Cc2cccc(F)c2C1 [Example 53, 6-cyano-7-(4-fluoroisoindolin-2-yl)-4-oxo-1-(pyridin-3-yl)-1,4-dihydroquinoline-3-carboxylic acid] |
| ≤ 1000 | COc1cnc(-n2cc(C(=O)O)c(=O)c3cc(C#N)c(N4Cc5cccnc5C4)cc32)cn1 [Example 54, 6-cyano-7-(5,7-dihydro-6H-pyrrolo[3,4-b]pyridin-6-yl)-1-(5-methoxypyrazin-2-yl)-4-oxo-1,4-dihydro quinoline-3-carboxylic acid] |
| ≤ 1000 | N#Cc1cc2c(=O)c(C(=O)O)cn(-c3ccc(O)nc3)c2cc1N1Cc2cccnc2C1 [Example 56, 6-cyano-7-(5,7-dihydro-6H-pyrrolo[3,4-b]pyridin-6-yl)-1-(6-hydroxypyridin-3-yl)-4-oxo-1,4-dihydroquinoline-3-carboxylic acid] |
